According to US20250163047A1, “HETEROCYCLIC COMPOUNDS, COMPOSITIONS THEREOF, AND METHODS OF TREATMENT THEREWITH” (BeiGene, Ltd., priority 2022, published 2025):

Experiments:
[1] = target: T1, Cbl-b (aa36-427) (Homo sapiens, UniProt Q13191); assay: Co-expressed Cbl-b with BirA biochemical assay (CBLB/E2-Ub binding, HTRF); conditions: 0.6 nM Cbl-b co-expressed with BirA, HTRF; read-out: co-express CBLB/E2-Ub-binding assay IC50
T1 construct: Cbl-b (aa36-427, in-house); made in house
Text: (§1) The assay in the absence of a Cbl-b/Cbl inhibitor, where phosphorylation of Cbl-b/Cbl by the Src kinase allows UbcH5B-Ub to bind to Cbl-b/Cbl and brings the Bodipy-Fluorescein tagged ubiquitin in proximity to the streptavidin-terbium bound to the N-terminal biotinylated Avi-tagged Cbl-b/Cbl. […] The lack of a FRET signal indicates Cbl-b/Cbl is inhibited by the Cbl-b/Cbl inhibitor.

[2] = target: T2, Cbl (aa49-434) (Homo sapiens, UniProt P22681); assay: Co-expressed Cbl with BirA biochemical assay (CBL/E2-Ub binding, HTRF); conditions: 0.6 nM Cbl co-expressed with BirA, read-out: co-express CBL/E2-Ub-binding assay IC50
T2 construct: Cbl (aa49-434, in-house); made in house
T2 sequence (P22681 49-434): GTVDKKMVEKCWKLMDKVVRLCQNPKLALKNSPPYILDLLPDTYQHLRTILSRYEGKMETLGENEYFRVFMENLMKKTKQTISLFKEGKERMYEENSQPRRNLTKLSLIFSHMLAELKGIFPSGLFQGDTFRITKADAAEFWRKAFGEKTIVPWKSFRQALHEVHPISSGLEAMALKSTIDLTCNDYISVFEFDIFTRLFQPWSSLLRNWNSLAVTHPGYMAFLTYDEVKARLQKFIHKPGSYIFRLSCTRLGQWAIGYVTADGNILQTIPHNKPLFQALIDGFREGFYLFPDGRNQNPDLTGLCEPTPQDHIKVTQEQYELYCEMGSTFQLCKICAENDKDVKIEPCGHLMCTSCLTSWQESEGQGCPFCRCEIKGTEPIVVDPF
Text: as §1

T1 sequence (Q13191 36-427): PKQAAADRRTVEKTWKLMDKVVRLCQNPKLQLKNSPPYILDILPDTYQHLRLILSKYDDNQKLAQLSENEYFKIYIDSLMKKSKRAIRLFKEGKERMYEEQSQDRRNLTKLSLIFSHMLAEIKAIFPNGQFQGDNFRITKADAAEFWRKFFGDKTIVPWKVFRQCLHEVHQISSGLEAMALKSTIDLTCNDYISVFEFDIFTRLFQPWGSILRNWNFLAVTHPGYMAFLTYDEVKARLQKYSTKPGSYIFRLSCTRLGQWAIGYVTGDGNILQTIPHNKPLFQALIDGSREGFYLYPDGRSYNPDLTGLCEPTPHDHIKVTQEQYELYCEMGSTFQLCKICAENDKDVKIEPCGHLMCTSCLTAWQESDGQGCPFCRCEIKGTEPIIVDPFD

Row | SMILES | IC50 [1] [nM] | IC50 [2] [nM]
1 | Cn1cnnc1[C@]1(c2cccc(NC(=O)c3cc(CNCC4(C)CCCC4)cn4ccnc34)c2)C[C@H](CC#N)C1 [Compound A15, N-(3-((1s, 3s)-3-(cyanomethyl)-1-(4-methyl-4H-1,2,4-triazol-3-yl)cyclobutyl)phenyl)-6-((((1-methylcyclopentyl)methyl)amino)methyl)imidazo[1,2-a]pyridine-8-carboxamide] | 0.9 | 4
2 | C[C@H]1CCCN(Cc2cc(C(=O)Nc3cccc([C@]4(c5nncn5C)C[C@@H](CC#N)C4)c3)n3ncnc3c2)C1 [Compound A14, N-(3-((1s,3R)-3-(cyanomethyl)-1-(4-methyl-4H-1,2,4-triazol-3-yl)cyclobutyl)phenyl)-7-(((S)-3-methylpiperidin-1-yl)methyl)-[1,2,4]triazolo[1,5-a]pyridine-5-carboxamide] | 45.3 | 185
3 | Cn1cnnc1[C@]1(c2cccc(NC(=O)c3cc(CNCC4CCC4)cn4ccnc34)c2)C[C@H](CC#N)C1 [Compound A43, N-(3-((1s, 3s)-3-(cyanomethyl)-1-(4-methyl-4H-1,2,4-triazol-3-yl)cyclobutyl)phenyl)-6-(((cyclobutylmethyl)amino)methyl)imidazo[1,2-a]pyridine-8-carboxamide] | 2 | 12
4 | Cn1cnnc1[C@]1(c2cccc(NC(=O)c3cc(CNC4(C)CC4)cn4c(Cl)cnc34)c2)C[C@H](C)C1 [Compound A67, 3-chloro-N-(3-((1s, 3s)-3-methyl-1-(4-methyl-4H-1,2,4-triazol-3-yl)cyclobutyl)phenyl)-6-(((1-methylcyclopropyl)amino)methyl)imidazo[1,2-a]pyridine-8-carboxamide] | 0.5 | 2.8
5 | Cn1cnnc1[C@]1(c2cncc(NC(=O)c3cc(CNC4(C)CCC4)cn4ccnc34)c2)C[C@H](C)C1 [Compound A81, N-(5-((1s, 3s)-3-methyl-1-(4-methyl-4H-1,2,4-triazol-3-yl)cyclobutyl)pyridin-3-yl)-6-(((1-methylcyclobutyl)amino)methyl)imidazo[1,2-a]pyridine-8-carboxamide] | 1.8 | 8.2
6 | Cn1cnnc1[C@]1(c2cccc(NC(=O)c3cc(CNCC4CCC4)cn4ccnc34)c2)C[C@H](C)C1 [Compound A22, 6-(((cyclobutylmethyl)amino)methyl)-N-(3-((1s, 3s)-3-methyl-1-(4-methyl-4H-1,2,4-triazol-3-yl)cyclobutyl)phenyl)imidazo[1,2-a]pyridine-8-carboxamide] | 1.1 | 3.6
7 | Cn1cnnc1[C@]1(c2cncc(NC(=O)c3cc(CNC4(C)CC4)cn4ccnc34)c2)C[C@H](C)C1 [Compound A75, N-(5-((1s, 3s)-3-methyl-1-(4-methyl-4H-1,2,4-triazol-3-yl)cyclobutyl)pyridin-3-yl)-6-(((1-methylcyclopropyl)amino)methyl)imidazo[1,2-a]pyridine-8-carboxamide] | 1.7 | 5.5

Further lines, results first:

Row | IC50 [1] [nM] | IC50 [2] [nM] | SMILES
8 | 1.8 | 5.2 | Cn1cnnc1C[C@]1(c2cccc(NC(=O)c3cc(CNCC4CCCC(F)(F)C4)c4c(n3)C(C)(C)CC4)c2)C[C@H](C#N)C1 (some centres unmarked) [Compound C15, N-(3-((1r, 3r)-3-cyano-1-((4-methyl-4H-1,2,4-triazol-3-yl)methyl)cyclobutyl)phenyl)-4-((((3,3-difluorocyclohexyl)methyl)amino)methyl)-7,7-dimethyl-6,7-dihydro-5H-cyclopenta[b]pyridine-2-carboxamide]
9 | 1.8 | 21 | C[C@H]1CCCN(Cc2cc(C(=O)Nc3cccc([C@]4(c5nncn5C)C[C@@H](CC#N)C4)c3)nc3cn[nH]c23)C1 [Compound B8, N-(3-((1s,3R)-3-(cyanomethyl)-1-(4-methyl-4H-1,2,4-triazol-3-yl)cyclobutyl)phenyl)-7-(((S)-3-methylpiperidin-1-yl)methyl)-1H-pyrazolo[4,3-b]pyridine-5-carboxamide]
10 | 1.87 | 7.72 | CC(C)CNCc1cc(C(=O)Nc2cccc([C@]3(c4nncn4C)C[C@@H](CC#N)C3)c2)nc2c1NCC2(C)C [Compound C32, 3,3-dimethyl-7-{[(2-methylpropyl)amino]methyl}-N-{3-[(1s, 3s)-3-(cyanomethyl)-1-(4-methyl-1,2,4-triazol-3-yl)cyclobutyl]phenyl}-1H,2H-pyrrolo[3,2-b]pyridine-5-carboxamide]
11 | 3.2 | 14 | Cn1cnnc1[C@]1(c2cncc(NC(=O)c3cc(CNC4(C)CCC4)c4[nH]cc(F)c4n3)c2)C[C@H](C)C1 [Compound B49, 3-fluoro-N-(5-((1s, 3s)-3-methyl-1-(4-methyl-4H-1,2,4-triazol-3-yl)cyclobutyl)pyridin-3-yl)-7-(((1-methylcyclobutyl)amino)methyl)-1H-pyrrolo[3,2-b]pyridine-5-carboxamide]
12 | 1.2 | 8.4 | Cn1cnnc1[C@]1(c2cccc(NC(=O)c3cc(CNC4(C)CCC4)c4[nH]ccc4n3)c2)C[C@H](CC#N)C1 [Compound B27, N-(3-((1s, 3s)-3-(cyanomethyl)-1-(4-methyl-4H-1,2,4-triazol-3-yl)cyclobutyl)phenyl)-7-(((1-methylcyclobutyl)amino)methyl)-1H-pyrrolo[3,2-b]pyridine-5-carboxamide]
13 | 1.7 | 3.2 | C[C@@H]1CN(Cc2cc(C(=O)Nc3cncc([C@]4(c5nncn5C)C[C@@H](C)C4)c3)nc3c2NCC3(C)C)CC[C@@H]1F [Compound C58, 7-(((3R,4S)-4-fluoro-3-methylpiperidin-1-yl)methyl)-3,3-dimethyl-N-(5-((1s,3S)-3-methyl-1-(4-methyl-4H-1,2,4-triazol-3-yl)cyclobutyl)pyridin-3-yl)-2,3-dihydro-1H-pyrrolo[3,2-b]pyridine-5-carboxamide]
14 | 1.6 | 10.4 | Cn1cnnc1[C@]1(c2cccc(NC(=O)c3cc(CNC4(C)CC4)c4c(n3)C(C)(C)CC4)c2)C[C@H](CC#N)C1 [Compound C24, N-(3-((1s, 3s)-3-(cyanomethyl)-1-(4-methyl-4H-1,2,4-triazol-3-yl)cyclobutyl)phenyl)-7,7-dimethyl-4(((1methylcyclopropyl)amino)methyl)-6,7-dihydro-5H-cyclopenta[b]pyridine-2-carboxamide]
15 | 0.8 | 1.5 | C[C@H]1CCCN(Cc2cc(C(=O)Nc3cccc([C@]4(Cc5nncn5C)C[C@@H](C#N)C4)c3)nc3c2OCC3(C)C)C1 [Compound C11, 3,3-dimethyl-7-{[(3S)-3-methylpiperidin-1-yl]methyl}-N-{3-[(1r, 3r)-3-cyano-1-[(4-methyl-1,2,4-triazol-3-yl)methyl]cyclobutyl]phenyl}-2H-furo[3,2-b]pyridine-5-carboxamide]
16 | 0.9 | 15.7 | C[C@H]1CCCN(Cc2cc(C(=O)Nc3cccc([C@]4(c5nncn5C)C[C@@H](CC#N)C4)c3)nc3c2CCC3(C)C)C1 [Compound C9, N-(3-((1s,3R)-3-(cyanomethyl)-1-(4-methyl-4H-1,2,4-triazol-3-yl)cyclobutyl)phenyl)-7,7-dimethyl-4-(((S)-3-methylpiperidin-1-yl)methyl)-6,7-dihydro-5H-cyclopenta[b]pyridine-2-carboxamide]
